Like-named read-outs stand apart in the source and are kept apart here.
Key:
[1] = biological target: T1, MCR-1 (Homo sapiens, UniProt Q01726); assay: Melanocortin receptor binding assay, competition with 125I-HP 467, HEK 293 cells expressing hMCR-1; conditions: inhibition of binding of 125I-HP 467, HEK 293 cells expressing MCR-1; for IC50: read-out: MC-1 IC50
T1 construct: expressed in transfected cells; host or cells: HEK 293
How it was run: (§1)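 Intact-cell competition binding, 2.5 hr at 37 °C, in PBS/10% calf serum/1 mM CaCl2; hMCR-4 cells at 4×10^3 per tube, hMCR-1 cells at 2×10^4 per tube. Filtration on BSA/CaCl2-soaked GF/B, cold 50 mM Tris pH 7.4 washes, scintillation count.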

[2] = biological target: T2, MCR-4 (Homo sapiens, UniProt P32245); assay: Melanocortin receptor binding assay, competition with 125I-HP 467, HEK 293 cells expressing hMCR-4; conditions: inhibition of binding of 125I-HP 467, HEK 293 cells expressing MCR-4; for IC50: read-out: MC-4 IC50
T2 construct: expressed in transfected cells; host or cells: HEK 293
T2 sequence (P32245 whole entry): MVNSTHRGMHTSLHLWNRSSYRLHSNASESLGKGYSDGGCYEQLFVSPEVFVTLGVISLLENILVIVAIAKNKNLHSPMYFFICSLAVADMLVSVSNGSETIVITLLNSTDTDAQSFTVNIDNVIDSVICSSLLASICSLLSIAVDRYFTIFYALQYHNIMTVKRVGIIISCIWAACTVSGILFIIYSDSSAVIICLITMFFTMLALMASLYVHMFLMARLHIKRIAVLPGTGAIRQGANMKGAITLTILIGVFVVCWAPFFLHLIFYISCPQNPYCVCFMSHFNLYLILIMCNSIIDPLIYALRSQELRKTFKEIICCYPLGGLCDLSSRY
How it was run: as §1

T1 sequence (Q01726 whole entry): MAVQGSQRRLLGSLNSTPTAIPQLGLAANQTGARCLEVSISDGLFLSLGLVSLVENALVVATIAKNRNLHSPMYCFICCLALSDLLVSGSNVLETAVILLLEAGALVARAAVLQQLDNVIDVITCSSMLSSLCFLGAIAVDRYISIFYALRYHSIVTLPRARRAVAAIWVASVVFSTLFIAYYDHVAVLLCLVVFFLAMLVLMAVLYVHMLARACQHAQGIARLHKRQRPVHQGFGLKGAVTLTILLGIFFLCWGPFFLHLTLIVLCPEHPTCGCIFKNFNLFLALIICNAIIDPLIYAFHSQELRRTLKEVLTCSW

Row | Structure (SMILES) | IC50 ([1]; TRG 2414 library) [µM] | IC50 ([2]; TRG 2414 library) [µM] | IC50 [1] [µM] | IC50 [2] [µM] | further results
1 | COc1ccc(CCNCC2c3ccccc3CN(CCCCC(CN)NCC(C)c3ccc(CC(C)C)cc3)C2c2ccc(Oc3ccccc3)cc2)cc1 (centres unmarked) [TRG 2414-148] | – | – | – | – | MC-1 IC50 ([1]; TRG 2414 library): no fit; MC-4 IC50 ([2]; TRG 2414 library): no fit
2 | CC(C)Cc1ccc(C(C)CNC(CN)CCCCN2Cc3ccccc3C(CNCc3ccccc3)C2c2ccc(Oc3ccccc3)cc2)cc1 (centres unmarked) [TRG 2414-152] | – | – | – | – | MC-1 IC50 ([1]; TRG 2414 library): no fit; MC-4 IC50 ([2]; TRG 2414 library): no fit
3 | NCC(N)CCCCN1Cc2ccccc2C(CNC2CCCCCC2)C1c1ccc(Oc2ccccc2)cc1 (centres unmarked) [TRG 2414-153] | 0.772 | 4.09 | – | – | –
4 | NCC(CCCCN1Cc2ccccc2C(CNC2CCCCCC2)C1c1ccc(Oc2ccccc2)cc1)NCCc1ccccc1 (centres unmarked) [TRG 2414-154] | 4.85 | 7.52 | – | – | –
5 | NCC(CCCCN1Cc2ccccc2C(CNC2CCCCCC2)C1c1ccc(Oc2ccccc2)cc1)NCc1ccccc1 (centres unmarked) [TRG 2414-155] | 2.03 | 8.94 | – | – | –
6 | NCC(N)CCCCN1Cc2ccccc2C(CNC2CCCCC2)C1c1ccc(Oc2ccccc2)cc1 (centres unmarked) [TRG 2414-157] | 1.11 | 4.11 | – | – | –
7 | CCCOc1ccc(C2C(CNCc3ccccc3C(F)(F)F)c3ccccc3CN2CCCCC(CN)NCC(C)c2ccc(CC(C)C)cc2)cc1 (centres unmarked) [TRG 2414-164] | – | – | – | – | MC-1 IC50 ([1]; TRG 2414 library): no fit; MC-4 IC50 ([2]; TRG 2414 library): no fit
8 | CCCCNc1ccc(C2C(CO)c3ccccc3CN2CCCC(CN)NCCC2CCCCC2)cc1 (centres unmarked) [TRG 2415-1] | – | – | 1.93 | 5.04 | –
9 | NCC(CCCN1Cc2ccccc2C(CO)C1c1ccc(O)cc1)NCCC1CCCCC1 (centres unmarked) [TRG 2415-2] | – | – | 2.24 | 0.94 | –
10 | CCOc1ccc(C2C(CO)c3ccccc3CN2CCCC(CN)NCCC2CCCCC2)cc1 (centres unmarked) [TRG 2415-3] | – | – | 1.44 | 2.38 | –
11 | CC(C)Oc1ccc(C2C(CO)c3ccccc3CN2CCCC(CN)NCCC2CCCCC2)cc1 (centres unmarked) [TRG 2415-5] | – | – | 2.52 | 0.96 | –
12 | CCCCOc1ccc(C2C(CO)c3ccccc3CN2CCCC(CN)NCCC2CCCCC2)cc1 (centres unmarked) [TRG 2415-6] | – | – | 2.39 | 5 | –
13 | CCc1ccc(C2C(CO)c3ccccc3CN2CCCC(CN)NCCC2CCCCC2)cc1 (centres unmarked) [TRG 2415-7] | – | – | 4.8 | 2.13 | –
14 | CCCCCc1ccc(C2C(CO)c3ccccc3CN2CCCC(CN)NCCC2CCCCC2)cc1 (centres unmarked) [TRG 2415-8] | – | – | 6.21 | 13.8 | –
15 | NCC(CCCN1Cc2ccccc2C(CN)C1c1ccc(O)cc1)NCCC1CCCCC1 (centres unmarked) [TRG 2415-9] | – | – | 3 | 1.95 | –
16 | CCOc1ccc(C2C(CN)c3ccccc3CN2CCCC(CN)NCCC2CCCCC2)cc1 (centres unmarked) [TRG 2415-10] | – | – | 0.46 | 1.76 | –
17 | CCCOc1ccc(C2C(CN)c3ccccc3CN2CCCC(CN)NCCC2CCCCC2)cc1 (centres unmarked) [TRG 2415-11] | – | – | 0.441 | 1.52 | –

Row | Structure (SMILES) | IC50 ([1]; TRG 2414 library) [µM] | IC50 ([2]; TRG 2414 library) [µM] | IC50 [1] [µM] | IC50 [2] [µM] | further results
18 | CCCCOc1ccc(C2C(CN)c3ccccc3CN2CCCC(CN)NCCC2CCCCC2)cc1 (centres unmarked) [TRG 2415-12] | – | – | 0.677 | 3.89 | –
19 | CCc1ccc(C2C(CN)c3ccccc3CN2CCCC(CN)NCCC2CCCCC2)cc1 (centres unmarked) [TRG 2415-13] | – | – | 1.83 | 0.87 | –
20 | CCCCCc1ccc(C2C(CN)c3ccccc3CN2CCCC(CN)NCCC2CCCCC2)cc1 (centres unmarked) [TRG 2415-14] | – | – | 1.69 | 9.39 | –
21 | CCNC(CN)CCCCN1Cc2ccccc2C(CN)C1c1ccc(O)cc1 (centres unmarked) [TRG 2415-15] | – | – | – | 63.9 | MC-1 IC50 [1]: no fit
22 | CCNC(CN)CCCCN1Cc2ccccc2C(CN)C1c1ccc(OCC)cc1 (centres unmarked) [TRG 2415-16] | – | – | 1.33 | 3.99 | –
23 | CCNC(CN)CCCCN1Cc2ccccc2C(CN)C1c1ccc(CC)cc1 (centres unmarked) [TRG 2415-19] | – | – | 1.46 | 2.04 | –
24 | CCCCCc1ccc(C2C(CN)c3ccccc3CN2CCCC[C@@H](CN)NCC)cc1 (some centres unmarked) [TRG 2415-20] | – | – | 0.273 | 4.54 | –
25 | CCNc1ccc(C2C(CNCCc3ccccc3)c3ccccc3CN2CCCC(CN)NCCCCNc2ccccc2)cc1 (centres unmarked) [TRG 2419-1] | – | – | 0.11 | 3.01 | –
26 | CCNc1ccc(C2C(CNCCc3ccccc3)c3ccccc3CN2CCCC(CN)NCCCCNCc2ccccc2)cc1 (centres unmarked) [TRG 2419-3] | – | – | 0.049 | 2.15 | –
27 | CCNc1ccc(C2C(CNCCc3ccccc3)c3ccccc3CN2CCCC(CN)NCCCCN(CC)CC)cc1 (centres unmarked) [TRG 2419-4] | – | – | 0.058 | 14.4 | –
28 | CCNc1ccc(C2C(CN)c3ccccc3CN2CCCC(CN)NCCCCNCc2ccccc2)cc1 (centres unmarked) [TRG 2419-6] | – | – | 0.082 | 6.41 | –
29 | CCNc1ccc(C2C(CN)c3ccccc3CN2CCCC(CN)NCCCCN(CC)CC)cc1 (centres unmarked) [TRG 2419-7] | – | – | 0.141 | 10.1 | –
30 | CCNc1ccc(C2C(CN)c3ccccc3CN2CCCC(CN)NCCCCO)cc1 (centres unmarked) [TRG 2419-8] | – | – | 1.09 | 6.91 | –
31 | CCNc1ccc(C2C(CN)c3ccccc3CN2CCCC(CN)NCCCCNc2ccccc2)cc1 (centres unmarked) [TRG 2419-9] | – | – | 0.239 | 10 | –
32 | CCNc1ccc(C2C(CN)c3ccccc3CN2CCCC(CN)NCCCCNC(C)(C)C)cc1 (centres unmarked) [TRG 2419-10] | – | – | 0.093 | 4.32 | –
33 | CCNc1ccc(C2C(CN)c3ccccc3CN2CCCC(CN)NCCCCN)cc1 (centres unmarked) [TRG 2419-11] | – | – | 0.199 | 18.4 | –

Continued, in another order:

Row | IC50 ([1]; TRG 2414 library) [µM] | IC50 ([2]; TRG 2414 library) [µM] | IC50 [1] [µM] | IC50 [2] [µM] | Structure (SMILES) | further results
34 | 2.86 | 2.69 | – | – | NCC(N)CCCCN1Cc2ccccc2C(CNCc2ccccc2)C1c1ccc(Oc2ccccc2)cc1 (centres unmarked) [TRG 2414-149] | –
35 | 9.42 | 16.3 | – | – | NCC(CCCCN1Cc2ccccc2C(CNCc2ccccc2)C1c1ccc(Oc2ccccc2)cc1)NCCc1ccccc1 (centres unmarked) [TRG 2414-150] | –
36 | 1.81 | 14.7 | – | – | NCC(CCCCN1Cc2ccccc2C(CNCc2ccccc2)C1c1ccc(Oc2ccccc2)cc1)NCc1ccccc1 (centres unmarked) [TRG 2414-151] | –
37 | 18.6 | – | – | – | CC(C)Cc1ccc(C(C)CNC(CN)CCCCN2Cc3ccccc3C(CNC3CCCCCC3)C2c2ccc(Oc3ccccc3)cc2)cc1 (centres unmarked) [TRG 2414-156] | MC-4 IC50 ([2]; TRG 2414 library): no fit
38 | 1.4 | 9.82 | – | – | NCC(CCCCN1Cc2ccccc2C(CNC2CCCCC2)C1c1ccc(Oc2ccccc2)cc1)NCc1ccccc1 (centres unmarked) [TRG 2414-159] | –
39 | 17.5 | – | – | – | CC(C)Cc1ccc(C(C)CNC(CN)CCCCN2Cc3ccccc3C(CNC3CCCCC3)C2c2ccc(Oc3ccccc3)cc2)cc1 (centres unmarked) [TRG 2414-160] | MC-4 IC50 ([2]; TRG 2414 library): no fit
40 | 7.98 | 11 | – | – | CCCOc1ccc(C2C(CNCc3ccccc3C(F)(F)F)c3ccccc3CN2CCCCC(N)CN)cc1 (centres unmarked) [TRG 2414-161] | –
41 | 2.73 | 22.6 | – | – | CCCOc1ccc(C2C(CNCc3ccccc3C(F)(F)F)c3ccccc3CN2CCCCC(CN)NCc2ccccc2)cc1 (centres unmarked) [TRG 2414-163] | –
42 | 6.82 | 8.58 | – | – | CCCOc1ccc(C2C(CNCc3ccccc3OCC)c3ccccc3CN2CCCCC(CN)NCCc2ccccc2)cc1 (centres unmarked) [TRG 2414-166] | –
43 | 2.16 | 7.03 | – | – | CCCOc1ccc(C2C(CNCc3ccccc3OCC)c3ccccc3CN2CCCCC(CN)NCc2ccccc2)cc1 (centres unmarked) [TRG 2414-167] | –
44 | 21.8 | 44.4 | – | – | CCCOc1ccc(C2C(CNCc3ccccc3OCC)c3ccccc3CN2CCCCC(CN)NCC(C)c2ccc(CC(C)C)cc2)cc1 (centres unmarked) [TRG 2414-168] | –
45 | 0.518 | 5.34 | – | – | CCCOc1ccc(C2C(CNCCc3ccccc3OC)c3ccccc3CN2CCCCC(N)CN)cc1 (centres unmarked) [TRG 2414-169] | –
46 | 1.77 | 7.34 | – | – | CCCOc1ccc(C2C(CNCCc3ccccc3OC)c3ccccc3CN2CCCCC(CN)NCCc2ccccc2)cc1 (centres unmarked) [TRG 2414-170] | –
47 | 1.1 | 4.8 | – | – | CCCOc1ccc(C2C(CNCCc3ccccc3OC)c3ccccc3CN2CCCCC(CN)NCc2ccccc2)cc1 (centres unmarked) [TRG 2414-171] | –
48 | 15.7 | 39.6 | – | – | CCCOc1ccc(C2C(CNCCc3ccccc3OC)c3ccccc3CN2CCCCC(CN)NCC(C)c2ccc(CC(C)C)cc2)cc1 (centres unmarked) [TRG 2414-172] | –
49 | 1.96 | 4.22 | – | – | CCCOc1ccc(C2C(CNCCc3cccc(Cl)c3)c3ccccc3CN2CCCCC(N)CN)cc1 (centres unmarked) [TRG 2414-173] | –
50 | 4.14 | 6.08 | – | – | CCCOc1ccc(C2C(CNCCc3cccc(Cl)c3)c3ccccc3CN2CCCCC(CN)NCc2ccccc2)cc1 (centres unmarked) [TRG 2414-175] | –
51 | 21.9 | – | – | – | CCCOc1ccc(C2C(CNCCc3cccc(Cl)c3)c3ccccc3CN2CCCCC(CN)NCC(C)c2ccc(CC(C)C)cc2)cc1 (centres unmarked) [TRG 2414-176] | MC-4 IC50 ([2]; TRG 2414 library): no fit
52 | 2.18 | 8.13 | – | – | CCCOc1ccc(C2C(CNCc3cccc(OC)c3)c3ccccc3CN2CCCCC(CN)NCCc2ccccc2)cc1 (centres unmarked) [TRG 2414-178] | –
53 | 0.998 | 5.48 | – | – | CCCOc1ccc(C2C(CNCc3cccc(OC)c3)c3ccccc3CN2CCCCC(CN)NCc2ccccc2)cc1 (centres unmarked) [TRG 2414-179] | –
54 | 0.468 | 6.83 | – | – | CCCOc1ccc(C2C(CNCc3ccc(OC)cc3)c3ccccc3CN2CCCCC(N)CN)cc1 (centres unmarked) [TRG 2414-181] | –
55 | 1.48 | 4.11 | – | – | CCCOc1ccc(C2C(CNCc3ccc(OC)cc3)c3ccccc3CN2CCCCC(CN)NCCc2ccccc2)cc1 (centres unmarked) [TRG 2414-182] | –
56 | 1.09 | 4.95 | – | – | CCCOc1ccc(C2C(CNCc3ccc(OC)cc3)c3ccccc3CN2CCCCC(CN)NCc2ccccc2)cc1 (centres unmarked) [TRG 2414-183] | –
57 | 17 | 27.9 | – | – | CCCOc1ccc(C2C(CNCc3ccc(OC)cc3)c3ccccc3CN2CCCCC(CN)NCC(C)c2ccc(CC(C)C)cc2)cc1 (centres unmarked) [TRG 2414-184] | –
58 | – | – | 0.581 | 9.35 | CCCOc1ccc(C2C(CN)c3ccccc3CN2CCCCC(CN)NCC)cc1 (centres unmarked) [TRG 2415-17] | –

Reference: patent US6608082B1, “Treatment of erectile dysfunction using isoquinoline compound melanocortin receptor ligands” (Lion Bioscience AG, priority 1998, dated 2003)
